Laboratory results published in patent US11617729B2 (priority 2019, dated 2023).

Tests used:
[1] = test system: liver cells LO2; assay: Proliferation of liver cells (CellTiter 96 AQueous One Solution); format: cell-based; conditions: 72 hours, 490 nm absorbance
Protocol: (§1) Liver cells LO2 and liver cancer cells Huh7 are inoculated into a 1640 medium containing 10% FBS (fetal bovine serum) respectively, and cultured at 37° C. for 12 hours in an incubator containing 5% CO2. […] The CellTiter 96® AQueous One Solution kit is used to determine the cells. 20 μL of analytical reagents are added and readings are taken at 490 nm absorbance.

[2] = test system: H22 mouse liver cancer cells; assay: Inhibition of the growth of mouse liver cancer tumors; format: in vivo, Kunming mice; conditions: for Inhibition rate (ninth day): vs normal saline group, hydrochloride; for tumor volume, Ninth day / tumor volume, Sixth day / tumor volume, Third day: H22 tumors in Kunming mice
Protocol: Preparation of tumor cell suspension: H22 mouse liver cancer cells are inoculated into a 1640 medium containing 10% FBS (fetal bovine serum), and cultured at 37° C. for 12 h in an incubator containing 5% CO2. When the cells grow to the logarithmic phase, the above medium is prepared into a cell suspension, and the concentration of H22 mouse liver cancer cells is controlled to 1×10^6 cells/mL to obtain the tumor cell suspension for later use.
Building of animal tumor model: 30 SPF grade Kunming mice, male and (20±2) g, are taken. […] The right armpit skin of mice in each group is disinfected with alcohol, and 0.2 mL of the above tumor cell suspension is drawn with a 1 mL syringe, and inoculated into the disinfected part of the mice by slow hypodermic injection. All mice are given sufficient water and feed, the litter is kept dry and the tumor growth of the mice is observed. Generally, 7 days after modeling, obvious tumor nodules can be felt under the armpits of the mice, which means that the modeling was successful.

[3] = test system: LLC lung cancer cell strains; assay: Inhibition of the growth of mouse lung cancer tumors; format: in vivo, CK57BL mice; conditions: for Inhibition rate on the seventh day: 480 mg/kg intraperitoneally once a day for 7 days, vs normal saline group, hydrochloride
Protocol: Preparation of tumor cell suspension: LLC lung cancer cell strains are inoculated into a DMEM medium containing 10% FBS (fetal bovine serum), and cultured at 37° C. for 12 h in an incubator containing 5% CO2. When the cells grow to the logarithmic phase, the above medium is prepared into a cell suspension, and the concentration is 1×10^6 cells/mL to obtain the lung cancer cell suspension for later use.
Building of animal tumor model: 20 SPF grade CK57BL mice, male and (20±2) g, are taken. The above mice are kept in a laboratory without particular pathogens. The right armpit skin of the mice is disinfected with alcohol, and 0.2 mL of the above tumor cell suspension is drawn with a 1 mL syringe, and inoculated into the disinfected part of the mice by slow hypodermic injection. All mice are given sufficient water and feed, the litter is kept dry and the tumor growth of the mice is observed. Generally, about 10 days after modeling, obvious tumor nodules can be felt under the armpits of the mice, which means that the modeling was successful.

[4] = test system: liver cancer cells Huh7; assay: Inhibition of fluorescently labeled DNA uptake by liver cancer cells; format: cell-based; conditions: then labeled DNA for 8 hours
Protocol: 1.8 KB of AFP (alpha feto protein) DNA is obtained through PCR (polymerase chain reaction), extracted with phenol-chloroform and adjusted to a concentration of 1 μg/mL. 5 μg of DNA is taken, and Rhodamine (fluorescent marker) is added. The mixture is allowed to stand at 37° C. for 1 hour, and purified in a G-50 Sephadex (purification column).
1640 medium is taken, and FBS (fetal bovine serum) is added, wherein the mass of FBS (fetal bovine serum) is 10% of that of 1640 medium. Put the mixture aside.
Eight groups of liver cancer cells Huh7 are inoculated into a 1640 medium respectively containing 10% FBS (fetal bovine serum) and cultured at 37° C. for 12 hours in an incubator containing 5% CO2.
Cells obtained through culture are rinsed 3 times with PBS and fixed with 4% formalin. The cells fixed as described above are photographed with a fluorescence microscope. […] The concentration of T3 is: 0 ng/mL, 1 ng/mL, 50 ng/mL and 100 ng/mL respectively.

[5] = test system: liver cancer cells Huh7; assay: Inhibition of liver cancer cell proliferation (CellTiter 96 AQueous One Solution); format: cell-based; conditions: 72 hours, 490 nm absorbance
Protocol: as §1

[6] = high-dose, 480 mg/kg intraperitoneally twice a day
[7] = low-dose, 240 mg/kg intraperitoneally twice a day
[8] = 480 mg/kg intraperitoneally once a day, LLC tumors in CK57BL mice

Row | Compound | growth of liver cells LO2 ([1]; 6 mmol/L) | growth of liver cells LO2 ([1]; 20 mmol/L) | Inhibition rate (ninth day) ([2]; high-dose, 480 mg/kg intraperitoneally twice a day for 9 days, 480 mg/kg) [%] | tumor volume, Ninth day [2, 6] [cm^3] | tumor volume, Sixth day [2, 6] [cm^3] | tumor volume, Third day [2, 6] [cm^3] | Inhibition rate (ninth day) ([2]; low-dose, 240 mg/kg intraperitoneally twice a day for 9 days, 240 mg/kg) [%] | tumor volume, Ninth day [2, 7] [cm^3] | tumor volume, Sixth day [2, 7] [cm^3] | tumor volume, Third day [2, 7] [cm^3] | Inhibition rate on the seventh day [3] [%] | Inhibition rate on the seventh day ([3]; listed as Guanidine hydrochloride) [%] | tumor volume, First day [3, 8] [cm^3] | tumor volume, Seventh day [3, 8] [cm^3] | tumor volume, Third day [3, 8] [cm^3] | uptake of fluorescently labeled DNA by liver cancer cells ([4]; 0, 1, 25, 50 mmol/L guanidine hydrochloride for 24 hours, fluorescence microscope) | growth of cancer cells Huh7 ([5]; 6 mmol/L) | growth of cancer cells Huh7 ([5]; 20 mmol/L) | uptake of fluorescently labeled DNA by liver cancer cells ([4]; control groups with 0, 1, 50, 100 ng/mL T3 for 24 hours)
1 | guanidine hydrochloride | does not affect the growth | significantly inhibited | 42 | 2.37 | 1.47 | 0.54 | 24 | 3.11 | 2.16 | 0.55 | 56.8 | 56.8 | 0.43 | 1.8 | 0.92 | significantly inhibit the uptake of DNA | begins to significantly inhibit | significantly inhibited | –
2 | N[C@@H](Cc1cc(I)c(Oc2ccc(O)c(I)c2)c(I)c1)C(=O)O [triiodothyronine] | – | – | – | – | – | – | – | – | – | – | – | – | – | – | – | – | – | – | do not affect the uptake
